Assays:
[1] = test system: iPSC-CM; assay: Ca2+ flux phenotypic assay; details: for beat frequency from Ca2+ flux traces: 100 μM, 90 minutes after treatment, vehicle ~30 beats per minute
[2] = test system: iPSC-Hep; assay: High-content imaging phenotypic assay in iPSC-derived hepatocytes, 48 h exposure; format: cell-based, human; details: 0.1-100 μM, benchmark 1 SD

O=S(=O)(O)CCC(F)(F)C(F)(F)C(F)(F)C(F)(F)C(F)(F)C(F)(F)C(F)(F)C(F)(F)F [8:2 FTS, 8:2 Fluorotelomer sulfonic acid]
negative chronotropy: effect that reached benchmark response (5% change) ([1]; 0.1-100 μM, 90 min): decreased peak frequency

N.O=C(O)C(F)(F)C(F)(F)C(F)(F)C(F)(F)C(F)(F)C(F)(F)C(F)(F)F [NH4PFOA, Ammonium perfluorooctanoate]
negative chronotropy: effect that reached benchmark response (5% change) ([1]; 0.1-100 μM, 90 min): decreased peak frequency

O=S(=O)(O)C(F)(F)C(F)(F)C(F)(F)C(F)(F)F [PFBS, Perfluorobutanesulfonic acid]
beat frequency from Ca2+ flux traces [1]: 24 beats per minute
negative chronotropy: effect that reached benchmark response (5% change) ([1]; 0.1-100 μM, 90 min): decreased peak frequency

O=S(=O)([O-])C(F)(F)C(F)(F)C(F)(F)C(F)(F)C(F)(F)C(F)(F)C(F)(F)C(F)(F)C(F)(F)C(F)(F)F.[Na+] [PFDS-Na, Sodium perfluorodecanesulfonate]
QT prolongation: effect that reached benchmark response (5% change) ([1]; 0.1-100 μM, 90 min): QT prolongation
negative chronotropy: effect that reached benchmark response (5% change) ([1]; 0.1-100 μM, 90 min): decreased peak frequency

O=C(O)C(F)(F)C(F)(F)OC(F)(F)F [PFMPA, Perfluoro-3-methoxypropanoic acid]
negative chronotropy: effect that reached benchmark response (5% change) ([1]; 0.1-100 μM, 90 min): decreased peak frequency

O=C(O)C(F)(F)C(F)(F)C(F)(F)C(F)(F)C(F)(F)C(F)(F)C(F)(F)F [PFOA, Perfluorooctanoic acid]
concentration-response phenotypic effect on cell mean area [2]: increased mean cell area
negative chronotropy: effect that reached benchmark response (5% change) ([1]; 0.1-100 μM, 90 min): decreased peak frequency

O=C(O)C(F)(F)C(F)(F)C(F)(F)C(F)(F)C(F)(F)C(F)(F)C(F)(F)C(F)(F)C(F)(F)C(F)(F)C(F)(F)C(F)(F)C(F)(F)F [PFTeDA, Perfluorotetradecanoic acid]
negative chronotropy: effect that reached benchmark response (5% change) ([1]; 0.1-100 μM, 90 min): decreased peak frequency

O=C(O)C(F)(F)C(F)(F)C(F)(F)C(F)(F)C(F)(F)C(F)(F)C(F)(F)C(F)(F)C(F)(F)C(F)(F)C(F)(F)C(F)(F)F [PFTiDA, Perfluorotridecanoic acid]
beat frequency from Ca2+ flux traces [1]: 12 beats per minute
negative chronotropy: effect that reached benchmark response (5% change) ([1]; 0.1-100 μM, 90 min): decreased peak frequency

From article PMC11305846 (ALTEX, 2024)
